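Compound exposure: 48 hours, 5 concentrations, 96-well plates. GI50 = concentration required for 50% inhibition of growth.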 Activity calls are given as the source filed them. Cut-off read from the data, not from the text of the source: active = GI50 up to about 1.1 µM and inactive = higher.
Legend:
Assay in all cases: NCI-60 cell line screen, 48 h
K562 = system: K562
NCI-H522 = system: NCI-H522
UACC-257 = system: UACC-257
SF-268 = system: SF-268
CAKI-1 = system: CAKI-1
UACC-62 = system: UACC-62
RXF 393 = system: RXF 393
A549 = system: A549
OVCAR-8 = system: OVCAR-8
TK-10 = system: TK-10
DMS-114 = system: DMS-114
SK-OV-3 = system: SK-OV-3
OVCAR-4 = system: OVCAR-4
SW-620 = system: SW-620
NCI-H226 = system: NCI-H226
HCT-15 = system: HCT-15
NCI/ADR-RES = system: NCI/ADR-RES
DU-145 = system: DU-145
MDA-N = system: MDA-N
PC-3 = system: PC-3

Structure (SMILES) | GI50 (K562) | GI50 (NCI-H522) | GI50 (UACC-257) | GI50 (SF-268) | GI50 (CAKI-1) | GI50 (UACC-62) | GI50 (RXF 393) | GI50 (A549) | GI50 (OVCAR-8) | GI50 (TK-10) | GI50 (DMS-114) | GI50 (SK-OV-3) | GI50 (OVCAR-4) | GI50 (SW-620) | GI50 (NCI-H226) | GI50 (HCT-15) [µM] | GI50 (NCI/ADR-RES) | GI50 (DU-145) | GI50 (MDA-N) | GI50 (PC-3)
O=C1c2c(c3c4ccccc4[nH]c3c3[nH]c4ccccc4c23)C(=O)N1Cc1ccccc1 | 3.05 µM (inactive) | 1.77 µM (inactive) | 3.75 µM (inactive) | 3.01 µM (inactive) | 3.65 µM (inactive) | 4.25 µM (inactive) | 1.51 µM (inactive) | 3.48 µM (inactive) | 4.47 µM (inactive) | 4.25 µM (inactive) | 2.82 µM (inactive) | 2.96 µM (inactive) | 3.06 µM (inactive) | 3.7 µM (inactive) | 2.1 µM (inactive) | 2.06 | – | – | – | –
CN(C)C(=O)c1ccc([N+](=O)[O-])cc1 | > 100 µM (inactive) | > 100 µM (inactive) | > 100 µM (inactive) | > 100 µM (inactive) | > 100 µM (inactive) | > 100 µM (inactive) | > 100 µM (inactive) | > 100 µM (inactive) | > 100 µM (inactive) | > 100 µM (inactive) | > 100 µM (inactive) | > 100 µM (inactive) | > 100 µM (inactive) | > 100 µM (inactive) | > 100 µM (inactive) | > 100 | – | – | – | –
COC(=O)C(=O)C(C(=O)C=C(C)C)C(=O)C(=O)Nc1ccc(Cl)cc1C (configuration not stated) | 71.8 µM (inactive) | 69.2 µM (inactive) | > 100 µM (inactive) | > 100 µM (inactive) | > 100 µM (inactive) | > 100 µM (inactive) | > 100 µM (inactive) | > 100 µM (inactive) | > 100 µM (inactive) | > 100 µM (inactive) | 92 µM (inactive) | > 100 µM (inactive) | > 100 µM (inactive) | – | > 100 µM (inactive) | > 100 | – | – | – | –
Cc1c(-c2nnc(-c3ccc(Cl)cc3)o2)c(=O)n(-c2ccccc2)n1C | > 100 µM (inactive) | > 100 µM (inactive) | > 100 µM (inactive) | > 100 µM (inactive) | – | > 100 µM (inactive) | > 100 µM (inactive) | > 100 µM (inactive) | > 100 µM (inactive) | > 100 µM (inactive) | > 100 µM (inactive) | > 100 µM (inactive) | > 100 µM (inactive) | > 100 µM (inactive) | > 100 µM (inactive) | > 100 | – | – | – | –
C[C@]12CCC(=O)C[C@H]1CCC(O)[C@@H]2Br (some centres not stated) | > 100 µM (inactive) | > 100 µM (inactive) | > 100 µM (inactive) | > 100 µM (inactive) | > 100 µM (inactive) | > 100 µM (inactive) | – | > 100 µM (inactive) | > 100 µM (inactive) | > 100 µM (inactive) | > 100 µM (inactive) | > 100 µM (inactive) | > 100 µM (inactive) | > 100 µM (inactive) | > 100 µM (inactive) | > 100 | – | – | – | –
CC1=NN(c2ccccc2)C(=O)/C1=C1\SC(c2ccccc2)(c2ccccc2)c2ccccc21 | > 100 µM (inactive) | > 100 µM (inactive) | > 100 µM (inactive) | > 100 µM (inactive) | > 100 µM (inactive) | > 100 µM (inactive) | > 100 µM (inactive) | > 100 µM (inactive) | > 100 µM (inactive) | > 100 µM (inactive) | – | > 100 µM (inactive) | > 100 µM (inactive) | > 100 µM (inactive) | > 100 µM (inactive) | > 100 | > 100 µM (inactive) | > 100 µM (inactive) | > 100 µM (inactive) | > 100 µM (inactive)
CCOc1ccccc1/N=N/c1ccc2oc(=O)c(C(=O)Nc3cccc(C)c3)cc2c1 | 23.3 µM (inactive) | 17.9 µM (inactive) | 26.1 µM (inactive) | 29.4 µM (inactive) | 49.8 µM (inactive) | 26.2 µM (inactive) | – | 42.3 µM (inactive) | 24.7 µM (inactive) | 48.3 µM (inactive) | 23.1 µM (inactive) | 49.7 µM (inactive) | 28.6 µM (inactive) | 31.3 µM (inactive) | – | 25.4 | – | – | – | –
CCOc1cc2c(cc1O)C(=O)C[C@@H]1[C@@H]2CC[C@]2(C)[C@@H](O)CC[C@@H]12 | 0.0362 µM (active) | 0.0508 µM (active) | 1.21 µM (inactive) | 0.308 µM (active) | 0.164 µM (active) | 0.0682 µM (active) | 1.59 µM (inactive) | 0.877 µM (active) | 0.321 µM (active) | > 13.4 µM (inactive) | – | 0.463 µM (active) | 35.1 µM (inactive) | 0.126 µM (active) | 0.561 µM (active) | 0.0556 | 0.0955 µM (active) | 0.337 µM (active) | 0.0212 µM (active) | 2.71 µM (inactive)
Oc1c2c(nc3cc4c(cc13)OCO4)-c1ccccc1CC2 | > 100 µM (inactive) | – | > 100 µM (inactive) | > 100 µM (inactive) | – | > 100 µM (inactive) | 78 µM (inactive) | > 100 µM (inactive) | > 100 µM (inactive) | > 100 µM (inactive) | > 100 µM (inactive) | – | > 100 µM (inactive) | > 100 µM (inactive) | > 100 µM (inactive) | > 100 | – | – | – | –

Source: ChEMBL document CHEMBL1201862, “PubChem BioAssay data set” (2004)
